Assay results published in US11964935B2, “Gingerol derivative having inhibitory activity against biofilm formation and pharmaceutical composition comprising same as effective ingredient for preventing or treating biofilm-caused infection symptom” (Korea University Research and Business Foundation, Sejong …, priority 2017, dated 2024).
Entries after “also recorded” stand apart in the source; their conditions may differ.

Legend:
[1] = system: P. aeruginosa; conditions: cited from earlier work
[2] = system: P. aeruginosa PA14; test: Static biofilm formation assay; assay type: cell-based, Pseudomonas aeruginosa
Method: Overnight culture of P. aeruginosa PA14 (OD595=1.0) was diluted (1:20) with the AB medium (300 mM NaCl, 50 mM MgSO4, 0.2% vitamin-free casamino acids, 10 mM potassium phosphate, 1 mM L-arginine, and 1% glucose, pH 7.5) (1:20) containing with either positive controls or synthesized compounds (0-100 μM). The dilutions were aliquoted into borosilicate bottles, and the bottles were incubated at 37° C. for 24 h without agitation. After that, OD595 of the cell suspension was measured on the VICTOR ×5 multimode plate reader. The biofilm cells attached to the bottle were washed two times with phosphate buffered saline (PBS; 137 mM NaCl, 2.7 mM KCl, 10 mM Na2HPO4, and 2 mM KH2PO4, pH 7.2) and stained with 0.1% crystal violet for […] Next, the stained biofilm cells were eluted with 100% ethyl alcohol, and OD540 was measured on the VICTOR ×5 multimode plate reader. The biofilm formation was quantified by dividing OD540 with OD595.

[3] = system: P. aeruginosa PA14; test: Growth inhibition assay; assay type: cell-based, Pseudomonas aeruginosa; conditions: 100 μM, 24 h
Method: A 5% dilution of overnight culture of P. aeruginosa PA14 (OD595=1.0) containing either a positive control or the synthesized compound (0-100 μM) was inoculated into wells of a 96-well polystyrene microtiter plate (Sigma-Aldrich). The plate was incubated at 37° C. for 24 h. OD595 of the suspension culture was measured on the VICTOR ×5 multimode plate reader.

[4] = system: P. aeruginosa PA14; test: Dynamic biofilm formation assay (drip-flow reactor, CLSM); assay type: cell-based, Pseudomonas aeruginosa; conditions: for Biofilm thickness / Biofilm volume: 10 μM compound, Comstat2; for Biofilm thickness / Biofilm volume / Biofilm formation in CLSM images, in words: 48 h drip-flow reactor; for Biofilm formation in CLSM images, in words: compared with DMSO or compound 1c
Method: Glass slides were dipped into a Petri dish containing 2 mL of a P. aeruginosa PA14 suspension (OD595=1.0) and 18 mL of the AB medium, followed by incubation at 37° C. for 24 h to let the cells adhere to the slides. The slides were then inserted into a drip-flow reactor (DFR-110, BioSurface, Mont., USA). The AB medium with either a positive control or the synthesized compound (0-10 μM) was fed into the reactor continuously via a peristaltic pump (Masterflex C/L tubing pumps, Cole-Parmer, IL, USA) at 0.3 mL/min After operation of the reactor at 37° C. for 48 h, the cells on the slides were washed two times with PBS. The biofilm cells were stained with fluorescein isothiocyanate-labeled type IV ConA (Sigma-Aldrich) and SYPRO Ruby (Ruby, Invitrogen, Carlsbad, CA, USA) for 15 min, respectively. CLSM images were captured via a 20× objective lens (W N-Achroplan 20×/0.5 W [DIC] M27) with green fluorescence (ConA, excitation wavelength of 490 nm, emission wavelength of 525 nm) and red fluorescence (Ruby, excitation wavelength of 470 nm, emission wavelength of 618 nm) and were analyzed in the Zen 2011 software (Carl Zeiss, Jena, Germany). For quantification, biofilm volume (μm^3/μm^2) and average thickness (μm) were measured by means of Comstat2 in ImageJ.
A dynamic biofilm formation assay of compounds 41 and 42 was performed in a drip-flow reactor. Compound 1c served as a positive control, and DMSO served as a negative control. After 48 h drip-flow reactor operation, the biofilm was stained with Ruby and concanavalin A (ConA). Ruby (red) is a reagent for staining protein, and ConA (green) is for carbohydrate of biofilm. As shown in (A) of FIG. 8, the biofilm in the presence of DMSO formed with typical mushroom-like morphology. […] Biofilm volume and thickness with compound 41 were the lowest among the three groups (Table 1).

[5] = biological target: T1, LasR (Pseudomonas aeruginosa, UniProt P25084); test: LasR reporter gene assay (E. coli reporter strain, luminescence, competition with OdDHL); assay type: cell-based; conditions: compound 1 μM; compound 1a 0, 0.1, 1, 10 and 100 μM
T1 construct: expressed in transfected cells; host or cells: E. coli DH5α (printed DHSα) co-transformed with pJN105L and pSC11

[6] = biological target: T1, LasR; test: as above; assay type: cell-based; conditions: compound 1 μM or 10 μM in the presence of 1 μM OdDHL (compound 1a)
Method: This assay was conducted by modifying a previously reported method. E. coli DHSα co-transformed with two plasmids, pJN105L (LasR expression plasmid) and pSC11 (lasI::lacZ fusion plasmid), was used as a bioassay reporter strain. Overnight culture of the reporter strain with 10 μg/mL gentamicin and 50 μg/mL ampicillin was diluted in the Luria-Bertani (LB) medium (1:100). Then, the reporter strain (optical density at 595 nm [OD595] was 0.3) mixed with either a positive control or the synthesized compound was incubated with OdDHL (Sigma-Aldrich, St. Louis, MO., USA) and 0.4% arabinose (Sigma-Aldrich). After incubation at 37° C. for 1.5 h, OD595 was measured on a VICTOR ×5 multimode plate reader (PerkinElmer, Waltham, Mass., USA). The β-galactosidase activity was determined using a Tropix plus kit (Applied Biosystems, USA), and luminescence was measured on the VICTOR ×5 multimode plate reader. RLU ratio was quantified by dividing luminescence with OD595.
LasR-binding affinity of the synthesized gingerols (compounds 4-10) with various alkyl chain lengths was determined by measuring luminescence of an E. coli reporter strain. The reporter strain carried two plasmids, pJN105L (LasR expression plasmid) (Lee, J. H.; Lequette, Y.; Greenberg, E. P. Activity of purified QscR, a Pseudomonas aeruginosa orphan quorum-sensing transcription factor. Mol. Microbiol. 2006, 59, 602609.) and pSC11 (las1::lacZ fusion plasmid) (Chugani, S. A.; Whiteley, M.; Lee, K. M.; D'Argenio, D.; Manoil, C.; Greenberg, E. P. QscR, a modulator of quorum-sensing signal synthesis and virulence in Pseudomonas aeruginosa. Proc. Natl. Acad. Sci. U.S.A. 2001, 98, 27522757.), which enabled assay of competitive binding of OdDHL with each gingerol derivative 4-10. Antagonistic activities of the synthesized compounds at 1 μM or 10 μM were determined by measuring luminescence in the presence of 1 μM OdDHL (compound 1a) and presented as relative luminescence unit (RLU) ratio. Three compounds (compounds 1b, 1c, and 1d) served as positive controls. […] Just as the LasR inhibition, inhibition of biofilm formation also strengthened as the carbon chain was extended at 10 μM ((B) of FIG. 3). However, inhibition of biofilm formation decreased with 9-gingerol (compound 9) and 10-gingerol (compound 10) at 100 μM ((C) of FIG. 3) because of increased bacterial growth inhibition. […] This effect may be due to the fact that compounds 9 and 10 act as a surfactant, which inhibits bacterial growth. Agonistic activities of compounds 4-10 in an E. coli reporter assay system in the absence of OdDHL were next examined.

T1 sequence (P25084 whole entry): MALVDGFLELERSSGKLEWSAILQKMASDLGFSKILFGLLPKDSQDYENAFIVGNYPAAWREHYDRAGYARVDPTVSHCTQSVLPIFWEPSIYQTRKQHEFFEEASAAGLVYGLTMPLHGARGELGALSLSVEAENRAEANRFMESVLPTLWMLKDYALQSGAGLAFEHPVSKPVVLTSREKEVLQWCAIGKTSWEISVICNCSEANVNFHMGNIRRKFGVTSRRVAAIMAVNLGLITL

CCCCC[C@H](O)CC(=O)CCc1ccc(O)c(OC)c1 [Compound 1b, (S)-6-gingerol]
Biofilm formation and production of virulence factors (previously demonstrated) ([1]; competition with OdDHL for LasR): reduces biofilm formation and production of virulence factors

O=C1C=C(Br)/C(=C/Br)O1 [Compound 1d, (Z)-4-bromo-5-(bromomethylene)furan-2(5H)-one]
Expression of virulence factors (prior report) ([1]; interference with P. aeruginosa QS systems): inhibits the expression of virulence factors

CCCCCCCCC(O)CC(=O)CCc1ccc(O)c(OC)c1 (stereo not drawn) [Compound 9, 5 -Hydroxy-1-(4-hydroxy-3-methoxyphenyl)tridecan-3-one]
Inhibition of biofilm formation at 100 μM, in words ([2]; 24 h, static): decreased | Bacterial growth inhibition [3]: inhibited bacterial growth significantly

CCCCCCCCCC(O)CC(=O)CCc1ccc(O)c(OC)c1 (stereo not drawn) [Compound 10, 5-Hydroxy-1-(4-hydroxy-3-methoxyphenyl)tetradecan-3-one]
Inhibition of biofilm formation at 100 μM, in words ([2]; 24 h, static): decreased | Bacterial growth inhibition [3]: inhibited bacterial growth significantly

CCCCCCC[C@@H](O)CC(=O)/C=C/c1ccc(O)c(OC)c1 [Compound 41, (R,E)-5-Hydroxy-1-(4-hydroxy-3-methoxyphenyl)dodec-1-en-3-one]
Inhibition of biofilm formation, in words ([2]; 10 μM, 24 h, static): greater inhibition of biofilm formation | Biofilm thickness ([4]; CLSM): 10.3 ± 0.1 μm | Biofilm volume ([4]; CLSM): 7.4 ± 0.2 μm^3/μm^2 | Biofilm formation in CLSM images, in words ([4]; 10 μM): relatively thin and sparse; also recorded: inhibited biofilm formation more effectively than compound 1c did | Volume of carbohydrates in biofilm compared to the other groups ([4]; ConA staining, CLSM, 10 μM): 47-74% | Volume of proteins in biofilm compared to the other groups ([4]; Ruby staining, CLSM, 10 μM): 23-56% | Binding reversibility to LasR [5]: binds reversibly to LasR | Bacterial growth inhibition [3]: bacterial growth inhibition was not observed | LasR-antagonistic activity / LasR-binding affinity (RLU ratio), in words [6]: stronger LasR-binding affinity

CCCCCCC[C@@H](O)CC(=O)CCc1ccc(O)c(OC)c1 [Compound 42, (R)-5-Hydroxy-1-(4-hydroxy-3-methoxyphenyl)dodecan-3-one]
Biofilm formation relative to compound 1c ([2]; static assay, 10 μM, effect of compound 1c set to 100%): 72% | Biofilm thickness ([4]; CLSM): 13.9 ± 0.1 μm | Biofilm volume ([4]; CLSM): 9.7 ± 1.1 μm^3/μm^2 | Biofilm formation in CLSM images, in words ([4]; 10 μM): relatively thin and sparse; also recorded: inhibited biofilm formation more effectively than compound 1c did | Bacterial growth inhibition [3]: bacterial growth inhibition was not observed | LasR-antagonistic activity / LasR-binding affinity (RLU ratio), in words [6]: much stronger LasR-binding affinity than compound 1c
